# From US20250198988A1 (priority 2012, published 2025)
# How the values were obtained:
# [1] = tested on: blood specimen involving acute myeloid leukemia (AML); settings: live cells from blood specimen, apoptosis by OD at 600 nm
# Procedure: In the MiCK assay cancer cells from a patient are placed in a suspension of a given concentration of single cells or small cell clusters and allowed to adjust to conditions in multiple wells of a microtiter plate. […] The optical density of each well is then measured periodically, typically every few minutes, for a period of typically a few days. As a cell undergoes apoptosis-related blebbing, its optical density increases in a nearly linear fashion.
# The assay may proceed by selecting an anti-cancer drug candidate and selecting at least one known cancer cell type on which to test the drug. The cancer cells may be suspended as a single-cell suspension in culture medium, such as RPMI. As used herein, a “single cell suspension” is a suspension of one or more cells in a liquid in which the cells are separated as individuals or in small clumps of 50 cells or fewer. […]
# Suspended cells may be tested by placing samples in wells of a spectrophotometric plate. The cells may be suspended at any concentration such that during the spectrophotometric measurements of OD, the beam of the plate reader normally passes through the layer of cells. […]
# The drug candidate and any control drugs or other control samples may be added to the wells after the adjustment period. […] Although many drug candidates may be water-soluble, drug candidates that are not readily soluble in water may also be tested.
# [2] = tested on: solid tumor specimen involving lung cancer metastases; experiment: MiCK assay of apoptosis on patient solid tumor specimen (Appendix A report); format: cell-based; settings: live cells from solid tumor specimen, apoptosis by OD at 600 nm
# From the text: Such candidates may be mixed with any appropriate carrier.
# Spectrophotometric data may be converted to kinetic units.
# Kinetic units may be determined as follows:
# KU=(VmaxDrug Treated−Vmaxcontrol)×60X y/(ODcell−ODblank).
# Appendix A is a report based on tests conducted on a solid tumor specimen involving lung cancer metastases.
smiles,measurement,setting,value
"O=P1(N(CCCl)CCCl)NCCCO1 (centres unmarked) [Cytoxan, cyclophosphamide]",maximum kinetic units (KU),[1],7.4 KU
CC(=O)O[C@H]1C(=O)[C@@]2(C)[C@H]([C@H](OC(=O)c3ccccc3)[C@]3(O)C[C@H](OC(=O)[C@H](O)[C@@H](NC(=O)c4ccccc4)c4ccccc4)C(C)=C1C3(C)C)[C@]1(OC(C)=O)CO[C@@H]1C[C@@H]2O [paclitaxel],maximum kinetic units (KU),[2],7.6 KU
